Patent US7615238B2, “Plaster for the treatment of dysfunctions and disorders of nails, comprising sertaconazole” (Trommsdorff GmbH & Co. KG Arzneimitttel, priority 2001, dated 2009)

Tested on: fungi such as Trichophyton mentagrophytes, Trichophyton rubrum, Candida albicans, Microsporum canis, Aspergillus niger
Test: Efficacy against fungi in comparison with other antifungal agents
Settings: in most cases, Trichosporum, Alternaria, Acremonium, Fusarium, Scopulariopsis

In the case of “(R,S)-1-[2-[(7-Chloro-3-benzo[b]thienyl)-methoxy]-2-(2,4-dichlorophenyl)-ethyl]-1H-imidazole [sertaconazole]”, the “efficacy against fungi in comparison with econazole, ketonazole, miconazole, or bifonazole” value is reported as “higher efficacy”.
